In series [1] the target is Baf3/T315I (Homo sapiens, UniProt P00519, T315I, cells depend on it). Description: MTT cell proliferation assay, Baf3/T315I. It counts as cell-based. The conditions noted are these: read-out: IC50 values obtained from MTT assay. The method, then: (§1) All the experimental compounds were evaluated for in vitro efficacy employing standard cell lines used for the screening of anti-cancer compounds.
(§2) In Vitro Studies of NRC-21T on BCR-abl Positive Cell Line K562 and Mutant Cell Lines Baf3/T315i, M351T, E255K and WT.
(§3) The stock solution was further diluted with the same cell culture medium and used in concentrations of 0.1 nm to 10 μm. Cell proliferation by MTT assay was done as follows. 1000 to 10,000 cells were seeded per well in 96-well plate and different concentrations of […] ranging from 10 μm to 0.1 nM were added in triplicates. After incubating the cells with NRC-21T for the required time period 24-72 hrs, 15 μl of 5 mg/ml MTT was added and incubated for additional 4 hours at 37° C. and 5% CO2. After 4 hrs, formazan crystals were dissolved in solubilizing buffer overnight at 37° C. Absorbance was measured on Elisa reader at dual wavelength of 570-630-nm. By MTT assay the IC50 values of the NRC21T were computed. […] (FIG. 3)
A general note: Tetrazolium assays rely on reduction of a dye to a coloured formazan, in cell work by metabolically active cells.

The subject of series [2] is BCR-abl positive cell line K562. Description: MTT cell proliferation assay, K562. It counts as cell-based. The conditions noted are these: Homo sapiens, read-out: IC50 values obtained from MTT assay. As for the experimental part: as §1, §2, §3
Series [3] relates to BaF3/T315i mutant Leukemia cancer cells. Description: Matrigel invasion assay. It counts as cell-based. As to conditions: matrigel transwell, 72 hrs, specified concentration.
Procedure: T315i cells (3×10^5) were suspended in 300 μl of serum-free medium and placed in the upper compartment of transwell chambers pre-coated with the matrigel (Millipore, Catalog No. ECM550, USA). The lower compartment of the chamber was filled with 500 μl serum-medium (10% FBS) and the cells were allowed to migrate for 72 hrs. After incubation, the cells were fixed and stained with the dye provided along with the kit and quantified using Elisa plate reader at 560 nm.
Series [4] has as its target Baf3/M351T (Homo sapiens, UniProt P00519, M351T, cells depend on it). The experiment in a line: MTT cell proliferation assay, Baf3/M351T. The conditions noted are these: Table 1A, 24-72 hrs incubation, read-out: IC50 values obtained from MTT assay. It counts as cell-based. The method, then: as §1, §2, §3
The target of series [5] is Baf3/E255K (Homo sapiens, UniProt P00519, E255K, cells depend on it). The experiment in a line: MTT cell proliferation assay, Baf3/E255K. The class given is cell-based. As to conditions: Table 1A, 24-72 hrs incubation, read-out: IC50 values obtained from MTT assay. The method, then: as §1, §2, §3
Series [6] relates to T315I cell Line. The experiment in a line: Survival time in SCID Mice injected with T315I cell line. The conditions noted are these: T315I cells i.v., 30 days dosing, NRC21T 200 mg/kg p.o, Ponatinib 10 mg/kg p.o. The class given is in vivo.
Series [7] deals with Baf3/WT (Homo sapiens, UniProt P00519). Description: MTT cell proliferation assay, Baf3/WT. The class given is cell-based. The conditions noted are these: Table 1A, 24-72 hrs incubation, read-out: IC50 values obtained from MTT assay. The method, then: as §1, §2, §3
The test system of series [8] is T315I induced tumour. Description: Antagonism in T315I induced tumour in Nude Mice. It counts as in vivo. The conditions noted are these: for Tumour volume after treatment (Mean ± SEM): daily oral, NRC21T 200 mg/kg, Ponatinib 50 mg/kg. As for the experimental part:
The study was carried out with 18 Nude Mice (9 Male+9 Female).
The cell line was inoculated into Nude Mice subcutaneously to the right hind limb flank at a strength of 1×10^6 cells/0.2 ml. Animals were observed daily for the appearance of tumour. The tumour volume was measured using the formula ½ l×w^2 (l=length of tumour & w=width of tumour). When the mean tumour volume was recorded above 400 mm^3, the treatment with the above drugs was started. The above drugs were administered orally daily for 30 days. Weights of Nude Mice were taken daily before dosing and tumour measurements were done on alternative days using digital Vernier caliper. Surviving animals were sacrificed after the dosing was complete for 30 days and the organs (tumour with skin and spleen) were collected.

Series [9] is described as follows: in vivo. As to conditions: both, Swiss Albino, mouse.

Read-outs that look alike come from different tables or passages of the source.

`Cc1ccc(NC(=O)c2ccc(CN3CCN(C)CC3)c(C(F)(F)F)c2)cc1C#Cc1cnc2[nH]c(=O)ccc2c1` [NRC-19T, N-[4-Methyl-3-[2-(7-oxo-8H-1,8-naphthyridin-3-yl)ethynyl]phenyl]-4-[(4-methylpiperazin-1-yl)methyl]-3-(trifluoromethyl)benzamide]: the GI50 in series [1] (Table 1B, T315I) came out at 334 nM. For the same molecule, the IC50 in series [2] (Table 1B) turned out to be 7 nM.
For `Cc1ccc(C(=O)Nc2cc(CN3CCN(C)CC3)cc(C(F)(F)F)c2)cc1C#Cc1cnc2[nH]c(=O)ccc2c1` [NRC-17T, 4-Methyl-N-[3-[(4-methylpiperazin-1-yl)methyl]-5-(trifluoromethyl)phenyl]-3-[2-(7-oxo-8H-1,8-naphthyridin-3-yl)ethynyl]benzamide], in that order: 712 nM and 21 nM.
In the same order, the values of `Cc1ccc(C(=O)Nc2ccc(CN3CCN(C)CC3)c(C(F)(F)F)c2)cc1/C=C/c1cnc2[nH]c(=O)ccc2c1` [NRC-20T, 4-Methyl-N-[4-[(4-methylpiperazin-1-yl)methyl]-3-(trifluoromethyl)phenyl]-3-[(E)-2-(7-oxo-8H-1,8-naphthyridin-3-yl)vinyl]benzamide] are 155 nM and 33 nM.
On to `Cc1ccc(C(=O)Nc2cc(C(F)(F)F)cc(C(F)(F)F)c2)cc1C#Cc1cnc2[nH]c(=O)ccc2c1` [NRC-16T, N-[3,5-Bis(trifluoromethyl)phenyl]-4-methyl-3-[2-(7-oxo-8H-1,8-naphthyridin-3-yl)ethynyl]benzamide], for which the GI50 in [1] (Table 1B, T315I) was greater than 10000 nM.
`Cc1ccc(NC(=O)c2cc(C(F)(F)F)cc(C(F)(F)F)c2)cc1C#Cc1cnc2[nH]c(=O)ccc2c1` [NRC-15T, N-[4-Methyl-3-[2-(7-oxo-8H-1,8-naphthyridin-3-yl)ethynyl]phenyl]-3,5-Bis(trifluoromethyl)benzamide]: the GI50 in series [1] (Table 1B, T315I) is 7690 nM. In series [2] (Table 1B), the IC50 came to 20 nM.
Regarding `Cc1ccc(C(=O)Nc2ccc(CN3CCN(C)CC3)c(C(F)(F)F)c2)cc1C#Cc1cnc2[nH]c(=O)ccc2c1` [NRC21T, 4-Methyl-N-[4-[(4-methylpiperazin-1-yl)methyl]-3-(trifluoromethyl)phenyl]-3-[2-(7-oxo-8H-1,8-naphthyridin-3-yl)ethynyl]benzamide], the “Percentage of Anti-invasion property” value in [3] was 28%. Also, the GI50 in [1] (Table 1A, Baf3/T315I, 24-72 hrs incubation) worked out at 14 nM; in series [4], 2 nM; in series [5], 16 nM; in series [7], 11 nM. In addition, in series [6], the “Mean Survival Time (Mean ± SEM)” value was found to be 36 ± 0 days. In series [2] (Table 1A, 24-72 hrs incubation), the IC50 came to 7 nM. Also, the “Tumour volume after treatment (Mean ± SEM)” value in series [8] (3rd Day) was determined as 721.18 ± 141.41 mm^3; in [8] (5th Day), 183.97 ± 8.66 mm^3; in series [8] (7th Day), 106.59 ± 11.90 mm^3; in [8] (9th Day) it was 83.21 ± 8.83 mm^3; in series [8] (11th Day), 48.88 ± 4.36 mm^3; in series [8] (13th Day), 10.61 ± 2.3 mm^3. Also, the “Initial tumour volume (Mean ± SEM)” value in [8] (before treatment, NRC21T 200 mg/kg p.o, Ponatinib 50 mg/kg p.o groups) stood at 921.35 ± 176.32 mm^3. In addition, in series [9], the MTD at 14 days was greater than 2000 mg/kg.
In the case of `Cc1cn(-c2cc(NC(=O)c3ccc(C)c(C#Cc4cnc5[nH]c(=O)ccc5c4)c3)cc(C(F)(F)F)c2)cn1` [NRC-18T, 4-Methyl-N-[3-(4-methylimidazol-1-yl)-5-(trifluoromethyl)phenyl]-3-[2-(7-oxo-8H-1,8-naphthyridin-3-yl)ethynyl]benzamide], the GI50 in [1] (Table 1B, T315I) amounted to 228 nM.
As for `Cc1ccc(NC(=O)c2cccc(C(F)(F)F)c2)cc1C#Cc1cnc2[nH]c(=O)ccc2c1` [NRC-13T, N-[4-Methyl-3-[2-(7-oxo-8H-1,8-naphthyridin-3-yl)ethynyl]phenyl]-3-(trifluoromethyl)benzamide], the GI50 in [1] (Table 1B, T315I) was found to be 1510 nM. Moreover, the IC50 in [2] (Table 1B) worked out at 9 nM.
In the same order, the values of `Cc1ccc(C(=O)Nc2cccc(C(F)(F)F)c2)cc1C#Cc1cnc2[nH]c(=O)ccc2c1` [NRC-14T, 4-Methyl-3-[2-(7-oxo-8H-1,8-naphthyridin-3-yl)ethynyl]-N-[3-(trifluoromethyl)phenyl]benzamide] are 1040 nM and 8 nM.
With `Cc1ccc(C(=O)Nc2ccc(CN3CCN(C)CC3)c(C(F)(F)F)c2)cc1C#Cc1cnc2cccnn12` [Ponatinib, reference compound], the “Percentage of Anti-invasion property” value in series [3] is 12%. In series [6], the “Mean Survival Time (Mean ± SEM)” value is 36 ± 0 days.

By IC50 is commonly meant the concentration that gives 50% inhibition.

The values are drawn from patent US10047088B2, “1H-1,8-naphthyridin-2-ones as anti proliferative compounds” (NATCO PHARMA LIMITED, priority 2014, dated 2018).
